Assay results published in patent publication US8906910B2, “Imidazopyridine derivatives as PI3 kinase” (GlaxoSmithKline LLC, priority 2011, dated 2014).

Columns and labels:
[1] = tested on: phosphorylation of AKT (Ser473) in MDA-MB-468 tumor cells; assay: Inhibition of phosphorylation of AKT in PTEN deficient tumor cell line MDA-MB-468 (MSD Ser473-AKT); type: cell-based; details: Homo sapiens, 0.5 h; MDA-MB-468 breast cancer cells, 30 minutes compound treatment, Ser473-pAKT normalized to total AKT
Protocol: Compounds were evaluated for their ability to inhibit downstream phosphorylation of AKT in MDA-MB-468 tumor cells. Breast cancer cells were plated, incubated for approximately 16-20 hours and then treated with compound for 30 minutes. Final DMSO concentration on all cells was 0.15%. The cells were washed with Tris buffer and lysed in MesoScale Discovery (MSD) lysis buffer containing protease and phosphatase inhibitors (included in MSD kit). MSD Ser473-AKT duplex plates (Cat #MS6000) were used according to the manufacturer's instructions and plates were read on a SECTOR™ Imager 6000 using MSD Workbench software. For analysis of the Ser473-pAKT concentration response curves, the data was normalized using the corresponding total AKT value (sum of pAKT and AKT signal) and plotted as the percent of the DMSO-treated control values. The data was fit in Graphpad Prism version 4 for Windows (Graphpad Software, San Diego, Calif.).

PI3Kβ = target: T1, PI3Kβ (Homo sapiens, UniProt P42338); assay: HTRF in vitro profiling assay for PI3K inhibition (beta isoform); type: biochemical; details: 200 pM enzyme, 100 uM ATP, 10 uM PIP2, 150 mM NaCl, corrected pIC50, single run or average of two or more runs; for IC50: read-out: PI3K b pIC50 (converted)
T1 construct: made in house
From the text: The PI3-Kinase profiling assays were developed to measure the compound-dependent inhibition of the alpha, beta, delta, and gamma isoforms of PI3Kin an in vitro catalytic assay. This assay was developed and optimized from a kit produced by Upstate (Millipore catalog #33-017). Briefly, this procedure utilizes a pre-formed HTRF (Homogeneous Time-Resolved Fluorescence energy transfer) complex between four binding partners: 1) biotinylated PIP3, 2) GST tagged pleckstrin homology (PH) domain, 3) Europium labeled anti-GST monoclonal antibody, and 4) Streptavidin-Allophycocyanin (APC). The native PIP3 produced by PI 3-Kinase activity displaces biotin-PIP3 from the PH domain, resulting in the dissociation of the HTRF complex and a decrease in the fluorescence signal. The format of this assay is the same for all 4 isoforms of PI3K; the differences lie in the concentration of enzyme used to achieve the most robust signal. The alpha and delta assays are run at 400 pM enzyme; the beta assay is at 200 pM enzyme and the gamma assay is run at 1 nM enzyme. In addition, the alpha, beta and delta assays are run with 150 mM NaCl while the gamma assay is run in the absence of NaCl. The ATP concentration is 100 uM in the alpha, beta, and delta assays and 15 uM ATP in the gamma assay. All reactions are run at 10 uM PIP2
Compounds were serially diluted (3-fold in 100% DMSO) across a 384-well polypropylene mother plate from column 1 to column 12 and column 13 to column 24, to yield 11 concentrations for each test compound. Columns 6 and 18 contain only DMSO. Once titrations were made, 0.054 was transferred to a 384-well low-volume assay plate (Greiner 784076). This assay plate contained three pharmacological controls (known PI3K inhibitors) and 3 assay controls: (1) Enzyme without inhibitor; (2) Buffer minus enzyme, and (3) Buffer minus enzyme plus native PIP3. DMSO was stamped into all wells of columns 6 and 18. PIP3 was added at 40 μM in 1× Reaction buffer (1 μL of 200 μM PIP3) to alternating rows of column 18 (wells 18 B, D, F, H, J, L, N, P). The no-enzyme control reactions were run in wells 18 A, C, E, G, I, K, M, O (0.14 of 100% DMSO).
The PI3-Kinase profiling assay was optimized using the HTRF kit provided by Upstate (Millipore). The assay kit contained seven reagents: 1) 4× Reaction Buffer; 2) native PIP2 (substrate); 3) Stop A (EDTA); 4) Stop B (Biotin-PIP3); 5) Detection Mix A (Streptavidin-APC); 6) Detection Mix B (Eu-labeled Anti-GST plus GST-tagged PH-domain); 7) Detection Mix C (KF). In addition, the following items were obtained or purchased: PI3Kinase (prepared by GSK BR&AD), dithiothreitol (Sigma, D-5545), Adenosine-5′-triphosphate (ATP, Teknova cat. #A0220), native PIP3 (1,2-dioctanoyl-sn-glycero-3-[phosphoinositil-3,4,5-triphosphate]tetraammonium salt (Avanti polar lipids, 850186P), DMSO (Sigma, 472301).
PI3Kinase Reaction Buffer was prepared by diluting the stock 1:4 with de-ionized water. Freshly prepared DTT was added at a final concentration of 5 mM on the day of use. Enzyme addition and compound pre-incubation were initiated by the addition of 2.5 μL of PI3K (at twice its final concentration) in 1× reaction buffer to all wells using a Multidrop Combi. Plates were incubated at room temperature for 15 minutes. Reactions were initiated by addition of 2.5 μL of 2× substrate solution (PIP2 and ATP in 1× reaction buffer) using a Multidrop Combi. Plates were incubated at room temperature for one hour. Reactions were quenched by the addition of 2.5 μL of stop solution (Stop A and Stop B pre-mixed at a ratio of 5:1, respectively) to all wells using the Multidrop Combi. […]

MDA-MB-468 cells = assay: Cell growth inhibition in PTEN-deficient cell line MDA-MB-468 (anchorage independent, Alamar Blue); type: cell-based; details: Homo sapiens, 144 h, MDA-MB-468, anchorage independent conditions, 6 days incubation, read-out: Prolif EC50 (nM) MDA-MB-468
Protocol: PTEN deficient tumor cell lines (MDA-MB-468) were cultured generally according to instructions supplied by cell culture supplier American Type Culture Collection, Manassas, Va., with 10% fetal bovine serum at 5% CO2 and 37° C. Cells were seeded into either a T-75 or a T-175 flask 3-4 days prior to 96-well assay plating such that the flasks were approximately 70-80% confluent of the time of harvest. Cells were harvested using 0.25% trypsin-EDTA (Invitrogen #25200056). Trypan Blue exclusion staining was used to determine cell number.
Viable cells were plated in clear, flat bottom 96-well plates (BD #353075) under anchorage independent conditions at 2,000-10,000 cells per well depending on the cell line. To generate anchorage independent growth conditions, a 5% agar stock solution in water was made and autoclaved to melt and sterilize. From the 5% agar solution, a 0.6% agar/media+10% fetal bovine serum (FBS) solution was made to generate a bottom agar layer in the plates to prevent cell attachment. Seventy five microliters per well of the 0.6% agar-media solution was added to the plates. After solidification, a cell solution of 266,870 to 1, 334,022 cells (depending on the cell line) in 10 ml of 0.3% agar/media+10% FBS was made and 75 μl of the cell/media/agar suspension was added to the plates. After the cell layer solidified, 50 μl of media+10% FBS was added to the top of the cells. A 0.3% Brij 35 (Sigma B4184) solution in media+10% FBS was added to column 12 as a background subtraction control. The cells were incubated overnight at 5% CO2 and 37° C. The next day one plate of cells was processed at the time of compound addition to quantify the starting number of cells (T=0 or T0).
To generate the compound titration plates, 15 μl of a 2 mM or 20 μl of a 20 mM solution of the compound of example 31 was diluted in clear bottom polypropylene 96-well plate (BD #351190) using a 10 point, 3-fold titration or a 20 point 2-fold titration, respectively. Three hundred microliters of media was added to the compound dilutions. Ten microliters per well of the serial dilutions was added to the cells and the plates incubated for 6 days at 5% CO2 and 37° C. The final concentration of DMSO in all wells was 0.15% and the highest final concentration of the compound of example 31 was 3.7 μM or 30.7 μM.
Following the 6-day incubation, 20 μl of Alamar Blue (Invitrogen #DAL1100) was added to the cells, incubated at 5% CO2 and 37° C. for 6 hours and the plates read on a Spectramax (Gemini EM) at 530 nm (excitation) and 590 nm (emission) with the auto cut-off disabled. For analysis of cell growth inhibition dose response curves, the data was plotted as the percent of the DMSO-treated control samples (DMSO samples set to 100%). The cellular response was determined for compounds and control compounds by fitting the concentration response with a 4 parameter curve fit using XLfit software and determining the concentration that inhibits 50% of the Ymax-Ymin window (EC50). The EC50 is the midpoint of active compound effect window (between Ymax plateau and Ymin plateau of compound) and represents the concentration of the compound of example 31 where 50% of its maximal effect is observed. Values from wells containing 0.3% Brij 35 (under anchorage independent conditions) were subtracted from all samples for background correction. The compounds listed in Table 3 were tested generally according to the assays described herein. […]

T1 sequence (P42338 whole entry, canonical isoform): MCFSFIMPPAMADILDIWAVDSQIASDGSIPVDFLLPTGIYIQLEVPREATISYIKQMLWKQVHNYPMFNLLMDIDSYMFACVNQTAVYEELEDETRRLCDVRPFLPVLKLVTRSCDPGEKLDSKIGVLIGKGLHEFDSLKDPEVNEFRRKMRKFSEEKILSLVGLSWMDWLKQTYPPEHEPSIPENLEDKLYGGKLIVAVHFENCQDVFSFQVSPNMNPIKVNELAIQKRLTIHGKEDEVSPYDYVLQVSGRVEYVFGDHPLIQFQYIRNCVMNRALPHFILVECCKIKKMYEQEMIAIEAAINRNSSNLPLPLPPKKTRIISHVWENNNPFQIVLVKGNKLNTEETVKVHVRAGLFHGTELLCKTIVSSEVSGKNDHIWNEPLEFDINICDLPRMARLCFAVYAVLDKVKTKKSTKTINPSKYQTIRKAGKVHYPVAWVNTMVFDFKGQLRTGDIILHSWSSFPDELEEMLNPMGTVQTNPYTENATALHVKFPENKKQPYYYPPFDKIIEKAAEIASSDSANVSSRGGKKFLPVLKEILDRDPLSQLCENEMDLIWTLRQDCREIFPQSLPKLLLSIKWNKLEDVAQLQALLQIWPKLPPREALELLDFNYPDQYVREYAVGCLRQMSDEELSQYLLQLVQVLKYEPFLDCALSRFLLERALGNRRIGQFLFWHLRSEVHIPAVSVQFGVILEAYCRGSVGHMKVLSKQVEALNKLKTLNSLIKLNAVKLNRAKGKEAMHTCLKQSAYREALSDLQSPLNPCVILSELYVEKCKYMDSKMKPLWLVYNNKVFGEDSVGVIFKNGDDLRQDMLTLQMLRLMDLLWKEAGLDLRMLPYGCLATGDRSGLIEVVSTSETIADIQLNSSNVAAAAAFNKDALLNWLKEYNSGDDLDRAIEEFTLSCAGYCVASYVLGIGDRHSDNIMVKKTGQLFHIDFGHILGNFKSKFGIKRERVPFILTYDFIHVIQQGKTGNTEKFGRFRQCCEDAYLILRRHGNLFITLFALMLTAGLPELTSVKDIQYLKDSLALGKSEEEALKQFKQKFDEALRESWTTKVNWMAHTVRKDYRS
T1 sequence (P27986 whole entry partner, canonical isoform): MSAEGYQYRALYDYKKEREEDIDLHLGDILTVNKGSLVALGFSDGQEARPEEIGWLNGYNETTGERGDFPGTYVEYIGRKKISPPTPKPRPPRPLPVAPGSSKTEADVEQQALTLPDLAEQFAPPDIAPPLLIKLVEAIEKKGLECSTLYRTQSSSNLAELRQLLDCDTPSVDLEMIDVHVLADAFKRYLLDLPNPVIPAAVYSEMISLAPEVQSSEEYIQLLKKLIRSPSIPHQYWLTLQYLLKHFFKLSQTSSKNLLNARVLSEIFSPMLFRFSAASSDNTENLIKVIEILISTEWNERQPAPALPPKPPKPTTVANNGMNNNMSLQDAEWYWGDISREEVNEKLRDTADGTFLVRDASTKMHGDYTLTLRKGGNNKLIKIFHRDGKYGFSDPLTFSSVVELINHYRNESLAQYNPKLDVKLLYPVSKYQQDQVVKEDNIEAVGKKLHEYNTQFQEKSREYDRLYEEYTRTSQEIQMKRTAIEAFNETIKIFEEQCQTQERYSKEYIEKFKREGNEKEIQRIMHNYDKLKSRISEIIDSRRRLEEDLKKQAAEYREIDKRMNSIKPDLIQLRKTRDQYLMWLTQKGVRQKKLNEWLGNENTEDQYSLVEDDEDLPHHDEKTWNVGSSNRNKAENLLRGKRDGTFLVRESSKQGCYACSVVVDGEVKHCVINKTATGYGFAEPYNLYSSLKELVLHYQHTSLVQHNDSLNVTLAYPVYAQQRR

Row | SMILES | IC50 [1] | IC50 (PI3Kβ) | EC50 (MDA-MB-468 cells) | PI3K b pIC50 (PI3Kβ)
1 | Cc1c(Cn2cnc3c(O)cc(N4CCOCC4)nc32)cccc1C(F)(F)F [Example 1, 3-(2-methyl-3-(trifluoromethyl)benzyl)-5-morpholino-3H-imidazo[4,5-b]pyridin-7-ol] | 477 nM | 1.58 nM |  | 
2 | Oc1cc(N2CCOCC2)nc2c1ncn2Cc1cccc2ccccc12 [Example 2, 5-morpholino-3-(naphthalen-1-ylmethyl)-3H-imidazo[4,5-b]pyridin-7-ol] | 578 nM | 3.16 nM |  | 
3 | Cc1c(Cn2c(C)nc3c(C(=O)O)cc(N4CCOCC4)nc32)cccc1C(F)(F)F [Example 3, 2-methyl-3-(2-methyl-3-(trifluoromethyl)benzyl)-5-morpholino-3H-imidazo[4,5-b]pyridine-7-carboxylic acid] | 436 nM |  | 41 nM | 8.3
4 | Cc1nc2c(C(=O)O)cc(N3CCOCC3)nc2n1Cc1cccc(Cl)c1Cl [Example 4, 3-(2,3-dichlorobenzyl)-2-methyl-5-morpholino-3H-imidazo[4,5-b]pyridine-7-carboxylic acid] | 41.4 nM |  | 153 nM | 8.3
5 | Cc1c(Cl)cccc1Cn1c(C)nc2c(C(=O)O)cc(N3CCOCC3)nc21 [Example 5, 3-(3-chloro-2-methylbenzyl)-2-methyl-5-morpholino-3H-imidazo[4,5-b]pyridine-7-carboxylic acid] | 15.9 nM |  | 18.1 nM | 8.8
6 | Cc1nc2c(C(=O)O)cc(N3CCOCC3)nc2n1Cc1cccc2ccccc12 [Example 6, 2-methyl-5-morpholino-3-(naphthalen-1-ylmethyl)-3H-imidazo[4,5-b]pyridine-7-carboxylic acid] | 75.3 nM | 1.58 nM | 66.5 nM | 
7 | Cc1nc2ccc(N3CCOCC3)nc2n1Cc1cccc2ccccc12 [Example 7, 4-(2-methyl-3-(naphthalen-1-ylmethyl)-3H-imidazo[4,5-b]pyridin-5-yl)morpholine] | 126 nM | 6.31 nM |  | 
8 | Cc1nc2ccc(N3CCOCC3)nc2n1Cc1cccc(Cl)c1Cl [Example 8, 4-(3-(2,3-dichlorobenzyl)-2-methyl-3H-imidazo[4,5-b]pyridin-5-yl)morpholine] | 406 nM | 39.8 nM | 1500 nM | 
